Source: publication PMC10782225 (The FASEB Journal, 2023)

Biological target: T1, unaltered α7β2‐nAChR (Homo sapiens, UniProt P17787+P36544)
T1 construct: expressed in transfected cells; host or cells: Xenopus laevis oocytes, cRNA injection
Experiment: ACh concentration‐response curve, TEVC, unaltered α7β2‐nAChR
Format: cell-based
Details: mean ± SEM of 15–19 oocytes
From the text: Stimulations lasted 3 s, and were applied sequentially, 60 s apart.

T1 sequence (P36544 23-502): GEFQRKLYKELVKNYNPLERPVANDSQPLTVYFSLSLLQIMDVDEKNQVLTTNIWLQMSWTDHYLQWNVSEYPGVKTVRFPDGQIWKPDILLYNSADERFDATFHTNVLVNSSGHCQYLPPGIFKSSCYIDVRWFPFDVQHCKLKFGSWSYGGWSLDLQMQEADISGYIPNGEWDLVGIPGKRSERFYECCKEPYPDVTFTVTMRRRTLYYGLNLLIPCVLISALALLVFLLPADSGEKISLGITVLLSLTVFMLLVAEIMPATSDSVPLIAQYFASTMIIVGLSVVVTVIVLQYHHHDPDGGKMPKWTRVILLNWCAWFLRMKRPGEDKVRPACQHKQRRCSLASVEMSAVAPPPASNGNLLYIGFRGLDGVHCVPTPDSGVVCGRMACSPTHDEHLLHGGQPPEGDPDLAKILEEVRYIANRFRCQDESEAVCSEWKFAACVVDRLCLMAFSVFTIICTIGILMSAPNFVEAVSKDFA
T1 sequence (P17787 26-502): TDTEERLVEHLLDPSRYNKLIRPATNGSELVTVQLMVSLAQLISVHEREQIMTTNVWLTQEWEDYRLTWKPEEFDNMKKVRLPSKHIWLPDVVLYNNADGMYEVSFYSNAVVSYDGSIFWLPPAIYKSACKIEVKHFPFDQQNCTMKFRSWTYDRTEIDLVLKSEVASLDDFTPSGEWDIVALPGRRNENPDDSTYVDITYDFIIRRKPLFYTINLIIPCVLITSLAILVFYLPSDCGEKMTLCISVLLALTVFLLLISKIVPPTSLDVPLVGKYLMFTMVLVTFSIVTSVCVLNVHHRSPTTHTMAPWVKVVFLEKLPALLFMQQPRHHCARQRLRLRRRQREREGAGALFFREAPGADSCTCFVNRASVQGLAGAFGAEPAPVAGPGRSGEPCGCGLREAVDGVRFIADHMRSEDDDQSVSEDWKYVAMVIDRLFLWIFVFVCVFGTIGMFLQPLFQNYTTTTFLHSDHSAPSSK

CC(=O)OCC[N+](C)(C)C [ACh, acetylcholine]
Imax, maximum function induced by ACh, unaltered α7β2‐nAChR (ACh 10 μM – 10 mM, half‐log steps, 3 s, 60 s apart): 1353 ± 149 nA
hillslope (nH), unaltered α7β2‐nAChR (logistic fit per oocyte): 1.03 ± 0.07
